Calls of active or inactive are those of the source. The calls are words filed in the database; no cut-off is given here.
Legend:
[1] = system: Plasmodium falciparum; experiment: Antiplasmodial activity against Plasmodium falciparum 3D7 infected in human RBC assessed as reduction in parasite growth after 72 hrs by LDH assay; format: functional, organism-based; details: 3D7, Erythrocyte
[2] = Cytotoxicity against human HL-60 cells assessed as reduction in cell viability after 48 hrs by Cell Count Reagent SF based assay; format: toxicity
[3] = system: Plasmodium falciparum; experiment: Antiplasmodial activity against chloroquine-resistant Plasmodium falciparum Dd2 infected in human RBC assessed as reduction in parasite growth after 72 hrs by LDH assay; format: functional, organism-based; details: Dd2, Erythrocyte
[4] = system: Plasmodium falciparum; experiment: Antiplasmodial activity against chloroquine-resistant Plasmodium falciparum K1 infected in human RBC assessed as reduction in parasite growth after 72 hrs by LDH assay; format: functional, organism-based; details: K1, Erythrocyte
[5] = Tmax in ICR mouse at 40 mg/kg, ip; format: ADME, organism-based; details: in vivo
[6] = system: Plasmodium berghei; experiment: Antimalarial activity against Plasmodium berghei ANKA infected in ICR mouse assessed as reduction in parasitemia level at 40 to 200 mg/kg, ip administered for 4 to 7 days after post-infection by Giemsa staining based microscopic analysis; format: functional, organism-based; details: dose 40-200 mg/kg, time 4-7 day
[7] = system: Plasmodium berghei; experiment: Antimalarial activity against Plasmodium berghei ANKA infected in ICR mouse assessed as increase in body weight at 40 mg/kg, ip administered for 4 to 7 days after post-infection by Giemsa staining based microscopic analysis; format: functional, organism-based; details: time 4-7 day
[8] = Toxicity in ICR mouse infected with Plasmodium berghei ANKA assessed as decrease in body weight at 200 mg/kg, ip administered for 4 to 7 days after post-infection by Giemsa staining based microscopic analysis; format: organism-based; details: in vivo, time 4-7 day
[9] = system: Plasmodium berghei; experiment: Antimalarial activity against Plasmodium berghei ANKA infected in ICR mouse assessed as increase in body weight at 200 mg/kg, ip administered for 4 to 7 days after post-infection and measured on day 11 post-infection by Giemsa staining based microscopic analysis; format: functional, organism-based; details: time 8.0 day
[10] = system: Plasmodium berghei; experiment: Antimalarial activity against Plasmodium berghei ANKA infected in ICR mouse assessed as increase in survival at 40 mg/kg, ip administered for 4 to 7 days after post-infection and measured on day 11 post-infection by Giemsa staining based microscopic analysis; format: functional, organism-based; details: time 8.0 day
[11] = Toxicity in ICR mouse infected with Plasmodium berghei ANKA assessed as decrease in body weight at 200 mg/kg, ip administered for 4 to 7 days after post-infection and measured on day 18 post-infection by Giemsa staining based microscopic analysis; format: organism-based; details: in vivo, 360 h, time 15 day
[12] = system: Plasmodium berghei; experiment: Antimalarial activity against Plasmodium berghei ANKA infected in ICR mouse assessed as increase in survival at 200 mg/kg, ip administered for 4 to 7 days after post-infection and measured on day 19 post-infection by Giemsa staining based microscopic analysis; format: functional, organism-based; details: time 16.0 day
[13] = AUC in ICR mouse at 40 mg/kg, ip; format: ADME, organism-based; design: dose 40 mg/kg, route ip; details: in vivo
[14] = Cmax in ICR mouse at 40 mg/kg, ip; format: ADME, organism-based; design: dose 40 mg/kg, route ip; details: in vivo
[15] = Half life in ICR mouse at 40 mg/kg, ip; format: ADME, organism-based; details: in vivo

| SMILES | IC50 [1] | IC50 at 48 h [2] | further results |
| --- | --- | --- | --- |
| CCCCc1cc(=O)oc2cc(N3CCOCC3)cc(O[C@H](C)C(=O)N3Cc4[nH]c5ccccc5c4C[C@H]3C(=O)OC)c12 | 210 nM | > 3000 nM |  |
| CCCc1cc(=O)oc2cc(C)cc(O[C@H](C)C(=O)N3Cc4[nH]c5ccccc5c4C[C@H]3C(=O)OC)c12 | 1.9 nM | > 3000 nM | IC50 [3]: 2.1 nM; IC50 [4]: 1.9 nM |
| CCCCc1cc(=O)oc2cc(C)cc(OCC(=O)N3Cc4[nH]c5ccccc5c4C[C@H]3C(=O)OC)c12 | 20 nM | > 3000 nM | IC50 [3]: 24 nM; IC50 [4]: 20 nM |
| CCCCc1cc(=O)oc2cc(C)cc(O[C@@H](C)C(=O)N3Cc4[nH]c5ccccc5c4C[C@H]3C(=O)OC)c12 | 190 nM | > 3000 nM |  |
| CCCCc1cc(=O)oc2cc(C)cc(OC(CC)C(=O)N3Cc4[nH]c5ccccc5c4C[C@H]3C(=O)OC)c12 (some centres undefined) | 7 nM | > 3000 nM |  |
| CCCCc1coc2cc(C)cc(O[C@H](C)C(=O)N3Cc4[nH]c5ccccc5c4C[C@H]3C#N)c12 | 110 nM | > 3000 nM |  |
| CCCCc1cc(=O)oc2cc(C)cc(OCC(=O)N3Cc4[nH]c5ccccc5c4C[C@@H]3C(=O)OC)c12 | 980 nM | > 3000 nM |  |
| CCCCc1cc(=O)oc2cc(C)cc(O[C@H](C)C(=O)N3Cc4[nH]c5ccccc5c4C[C@H]3C(=O)OCC)c12 | 55 nM | > 3000 nM |  |
| CCCCC(=O)c1c(OC)cc(C)cc1O[C@H](C)C(=O)N1Cc2[nH]c3ccccc3c2C[C@H]1C(=O)OC | 2400 nM | > 3000 nM |  |
| COC(=O)[C@@H]1Cc2c([nH]c3ccccc23)CN1C(=O)[C@@H](C)Oc1cc(C)cc2oc(=O)cc(CC3CC3)c12 | 3.5 nM | > 3000 nM |  |
| CCCCc1cc(=O)oc2cc(C)cc(O[C@H](C)C(=O)N3Cc4[nH]c5ccccc5c4C[C@H]3C#N)c12 | 4.1 nM | > 3000 nM |  |
| CCCCc1cc(=O)oc2cc(C)cc(O[C@H](C)C(=O)N3Cc4[nH]c5ccccc5c4C[C@H]3C(C)=O)c12 | 5.6 nM | > 3000 nM |  |
| CCCCc1cc(=O)oc2cc(Br)cc(O[C@H](C)C(=O)N3Cc4[nH]c5ccccc5c4C[C@H]3C(=O)OC)c12 | 9.6 nM | > 3000 nM |  |
| CCc1cc(=O)oc2cc(C)cc(O[C@H](C)C(=O)N3Cc4[nH]c5ccccc5c4C[C@H]3C(=O)OC)c12 | 11 nM | > 3000 nM |  |
| CCCCc1cc(=O)oc2cccc(O[C@H](C)C(=O)N3Cc4[nH]c5ccccc5c4C[C@H]3C(=O)OC)c12 | 4.1 nM | > 3000 nM |  |
| CCCCc1cc(=O)oc2cc(C)cc(O[C@H](C)C(=O)N[C@@H](Cc3c[nH]c4ccccc34)C(=O)OC)c12 | 55 nM | > 3000 nM |  |
| CCCCc1cc(=O)oc2cc(C)cc(OCC(=O)N3Cc4[nH]c5ccccc5c4C[C@H]3C(=O)NC)c12 | > 3000 nM | > 3000 nM |  |
| COC(=O)[C@@H]1Cc2c([nH]c3ccccc23)CN1C(=O)[C@@H](C)Oc1cc(C)cc2oc(=O)cc(C)c12 | 40 nM | > 3000 nM |  |
| CCCCc1cc(=O)oc2cc(C)cc(OC(C)C(=O)N3Cc4[nH]c5ccccc5c4C[C@H]3C(=O)OC)c12 (some centres undefined) | 6.8 nM | > 3000 nM |  |
| CCCCc1cc(=O)oc2cc(C)cc(OC(CCCC)C(=O)N3Cc4[nH]c5ccccc5c4C[C@H]3C(=O)OC)c12 (some centres undefined) | 10 nM | > 3000 nM |  |
| CCCCc1cc(=O)oc2cc(C)cc(O[C@H](C)C(=O)N3Cc4[nH]c5ccc(F)cc5c4C[C@H]3C(=O)OC)c12 | 5.5 nM | > 3000 nM |  |
| CCCCc1coc2cc(C)cc(O[C@H](C)C(=O)N3Cc4[nH]c5ccccc5c4C[C@H]3C(=O)OC)c12 | 220 nM | > 3000 nM |  |
| CCCCc1cc(=O)oc2cc(C)cc(O[C@H](C)C(=O)N3CCc4c([nH]c5ccccc45)C3)c12 | 72 nM | > 3000 nM |  |
| CCCCc1cc(=O)oc2cc(C)cc(OC(CCC)C(=O)N3Cc4[nH]c5ccccc5c4C[C@H]3C(=O)OC)c12 (some centres undefined) | 5.9 nM | > 3000 nM |  |
| CCCCc1cc(=O)oc2cc(C)cc(OC(C(=O)N3Cc4[nH]c5ccccc5c4C[C@H]3C(=O)OC)C(C)C)c12 (some centres undefined) | 6.4 nM | > 3000 nM |  |
| CCCCc1cc(=O)oc2cc(C)cc(O[C@H](C)C(=O)N3Cc4[nH]c5ccccc5c4C[C@H]3C(=O)OC)c12 | 2 nM | > 3000 nM | Tmax [5]: 2 h; IC50 [3]: 2.2 nM; IC50 [4]: 2.6 nM; Activity [6]: Active; Activity [7]: Active; Activity [8]: Toxic; Activity [9]: Active; Activity [10]: Active; Activity [11]: Toxic; Activity [12]: Active; AUC [13]: 25600 ng·h/mL; Cmax [14]: 7120 ng/mL; half-life [15]: 2.14 h |
